Data from patent publication US8124770B2, “Fluorescent cellular markers” (priority 2009, dated 2012).
Read-outs that look alike come from different tables or passages of the source.

Key:
Type in all cases: cell-based, human
[1] = tested on: Epidermoid carcinoma A431 cells; assay: Cell cytotoxicity (growth inhibition) of BQS on A431 cells, Trypan Blue Exclusion; settings: 5 to 100 uM, read-out: IC50 (inhibition of 50% of the cell population)
Protocol: Regarding the cytotoxicity, in order to determine the cell cytotoxicity of the BQS, duplicates cultures of 5×10^6 cells were seeded in 25 cm^2 flasks. The final volume on each plate was 9 ml of modified RPMI 1640 that contained the cell aliquot, media and BQS of present invention. Cells were then incubated for 4 hours to allow cells to adhere to the flask. Cells were cultured for 48 hours with BQS at concentration ranging from 5 to 100 uM. A negative control treated with ultra pure water (vehicle) was included in each experiment. […] At the end of the exposure period, media was removed and cultures rinsed twice with phosphate buffered saline (PBS) for removal of the compounds in solution. Cells detached with 5% trypsin enzyme, centrifuged, resuspended in fresh media and counted through a cell viability protocol, such as the Trypan Blue Exclusion analysis. Cell survival was calculated and plotted against time with the Microsoft Excel® software.

[2] = tested on: caspases 3 and 7 in A431 cells; assay: Caspases 3 and 7 activation, Magic Red assay, on A431 cells; settings: 48 hours of exposure, Cisplatin 3 uM positive control
Protocol: D. et al 2004; Blanc, C. et al 2000) making Cisplatin and Staurosporine appropriate positive controls for this assay. Cell culture media, such as RPMI 1640, modified with additional nutrients and additives such as Fetal Bovine serum and antibiotic has been added to improve the cell replication and prevent bacterial contamination was employed. […] The final volume on each plate was 9 ml of modified RPMI 1640 that contained the cell aliquot, media and drug. […] At the end of the treatment time cells were washed with PBS, detached with 5% trypsin enzyme and centrifuged. Cells were counted and aliquots were stained for an hour with cresyl violet (fluorochrome). […] Apoptotic cells (red) were distinguished from non apoptotic (non-fluorescent) using the negative and positive controls as reference.

[3] = tested on: DNA and mitochondria of A431 tumor cells; assay: Intra cellular binding to organelles, wide-field fluorescence microscopy of A431 tumor cells; settings: fluorescence microscope (FIG. 11)
A431 tumor cells = assay: Auto-fluorescence on A431 tumor cells, inverted fluorescence microscopy; settings: at IC50 concentration, monitored through 72 hour period, Olympus CKX41
Protocol: Regarding the autofluorencense, Ellipticine was selected as a fluorescent positive control since it is a structural analog of ABQS's. The elipticine's IC50 dose in A431 was determine by treating A431 cell cultures (in duplicates) at concentrations ranging from 0 to 50 μM. The final volume on each plate was 9 mL of modified RPMI 1640 that contained the cell aliquot, media and drug. Cells were exposed to ABQS's and Ellipticine at their IC50 concentrations, incubated and monitored through a 72 hour period by inverted microscopy. An Olympus CKX41 inverted fluorescent microscope (50 w Hg lamp), with U filter; 40× objective. Photographs were obtained at 13-17 seconds of exposure using the Q Capture Software. Auto-fluorescent cells were distinguished from non-auto-fluorescent ones using the negative and positive controls as reference.

[4] = Homo sapiens, A-431, 48 hours exposure

Molecule	IC50 ([1]; 48 hours exposure) [µM]	Caspases 3 and 7 activation [2] [%]	capacity to bind to cellular organelles [3]	auto fluorescence in cells (A431 tumor cells)	IC50 [1, 4] [µM]
7-Ethyl-3-nitrobenzimidazolo[3,2-a]quinolinium Chloride [NBQ38]	36	22±7			
CC[n+]1c2ccccc2n2c3ccc(N)cc3ccc21.[Cl-] [ABQ38, 3-amino-7-ethylbenzimidazo[3,2-a]quinolinium chloride]	32	51±1	bind to DNA and mitochondria	auto fluorescence	
Cc1ccc2sc3ccc4cc(N)c(Cl)cc4[n+]3c2c1.[Cl-] [ABQ95, 3-amino-2-chloro-10-methylbenzothiazolo[3,2-a]quinolinium chloride]		46±6	bind to DNA and mitochondria		36
N.N.[Cl][Pt][Cl] [Cisplatin, reference compound]		51±13			
Cc1ccc2sc3ccc4cc([N+](=O)[O-])c(Cl)cc4[n+]3c2c1 [NBQ95, 2-Chloro-10-methyl-3-nitrobenzothiazolo[3,2-a]quinolinium chloride]					28
